Reference: US20170296573A1, “ANTITUMOR DRUG COMPRISING BETA-CYCLODEXTRIN” (JRC G. K., priority 2014, published 2017)

Key:
UOK121 cells = experiment: Example 10 Test B: cyclodextrin with 2DG-ABT in UOK121 cells, live cells by trypan-blue dye exclusion; assay type: cell-based, human; settings: 10 mM 2DG, 10 mM cyclodextrin, 0.3 μM ABT-263, 25 mM glucose
Method: (§1) Dead and live cells were counted by trypan-blue dye exclusion methods. These experiments were done in triplicate, and the error bars indicate the standard deviation.
(Test A) UOK121 cells were incubated in 10% serum medium with 5 mM or 10 mM α-, β-, and γ-cyclodextrins for 45 minutes. The same medium without any cyclodextrin was also incubated as a control. The cells were harvested and analyzed by Western Blots for the phosphorylation of AKT and ERK1/2 as an indicator of the AKT and ERK1/2 activations. (Test B) 10 mM 2DG was added to a medium of U0K121 cells in the presence of 25 mM glucose, and the medium was incubated for 1.5 hours. To the medium was added 10 mM α-, β-, or γ-cyclodextrin, and the medium was incubated for 30 minutes. Then, 0.3 μM ABT-263 was added thereto, and the medium was further incubated for 2 hours. Separately, a control that includes only α-, β-, or γ-cyclodextrin without 2DG or ABT-263, and another control that includes neither α-, β-, or γ-cyclodextrin, nor 2DG or ABT-263 were prepared. 2.5 hours after adding each cyclodextrin (i.e., 2 hours after adding ABT-263), all the cells were washed with the medium twice, and next day the live cells were counted by trypan-blue dye exclusion assay.

AKT [1] = experiment: Example 10 Test A: AKT activation in UOK121 cells with α-, β-, γ-cyclodextrins; assay type: cell-based, human; settings: 10% serum, 5 mM or 10 mM cyclodextrin, 45 minutes
Method: (§2) We ran 20 μg of proteins per lane for western blots. We ran 8, 10, 12.5 and 15% gels depending on the size of proteins being detected by western blots. When there are two proteins having a similar size, gel is flowed in each protein to make western blot analysis about each protein. The immunoprecipitation was undergone by adding 200 μg of protein from solubilized cells and Protein G Sepharose or Protein A Sepharose (Sigma P3296/P9242) pre-conjugated with immunoprecipitation antibody to a buffer for immunoprecipitation, and slowly rotating the tube containing the sample buffer at 4° C. overnight. The buffer for immunoprecipitation comprises 20 mM Tris Ph 7.5, 1% Triton-X100, 150 mM NaCl, phosphatase inhibitor cocktail (Cell Signaling (#58709S)), and 10% glycerol. […] The precipitate in the solution was separated with 15% SDS-PAGE or 12.5% SDS-PAGE and analyzed by Western blotting.
(Test A) UOK121 cells were incubated in 10% serum medium with 5 mM or 10 mM α-, β-, and γ-cyclodextrins for 45 minutes. […] The cells were harvested and analyzed by Western Blots for the phosphorylation of AKT and ERK1/2 as an indicator of the AKT and ERK1/2 activations. […] 2.5 hours after adding each cyclodextrin (i.e., 2 hours after adding ABT-263), all the cells were washed with the medium twice, and next day the live cells were counted by trypan-blue dye exclusion assay.

AKT [2] = experiment: Example 6 Test A: AKT phosphorylation, UOK121 renal cancer cells; assay type: cell-based, human; settings: 10 mM bCD (MBCD) 30 minutes, 25 mM glucose
Method: as §2, with “overnight.” for “overnight. The buffer for immunoprecipitation comprises 20 mM Tris Ph 7.5, 1% Triton-X100, 150 mM NaCl, phosphatase inhibitor cocktail (Cell Signaling (#58709S)), and 10% glycerol.”
(§3) (Test A) HeLa cervical cancer cells, UOK121 renal cancer cells, Panc-1 pancreatic cancer cells, and A431 squamous cancer cells were untreated, pre-treated with 10 mM 2DG, co-incubated with 10 mM bCD for the last 30 minutes, or both-treated with the 10 mM 2DG and the 10 mM bCD, in the presence of 25 mM glucose contained in the media. Each cell was harvested and analyzed by Western Blotting. (Test B) The same samples of A431 cell lysates in Test A were analyzed for EGFR activation, ERK1/2 activation, and PI3K activation. […] The cells were harvested and the live cells were counted by trypan-blue dye exclusion assay. […]

AKT [3] = experiment: Example 6 Test A: AKT phosphorylation, HeLa cervical cancer cells; assay type: cell-based; settings: 10 mM bCD (MBCD) 30 minutes, 25 mM glucose
Method: as §2, with “overnight.” for “overnight. The buffer for immunoprecipitation comprises 20 mM Tris Ph 7.5, 1% Triton-X100, 150 mM NaCl, phosphatase inhibitor cocktail (Cell Signaling (#58709S)), and 10% glycerol.”
as §3

AKT [4] = experiment: Example 3 Method C: recovery of AKT activities in HeLa cells after bCD washout; assay type: cell-based; settings: 10 mM bCD (MBCD) one hour, washed, 10% serum, up to 120 minutes
Method: (§4) We ran 20 μg of proteins per lane for western blots. We ran 8, 10, 12.5 and 15% gels depending on the size of proteins being detected by western blots. When there are two proteins having a similar size, gel is flowed in each protein to make western blot analysis about each protein. The immunoprecipitation was undergone by adding 200 μg of protein from solubilized cells and Protein G Sepharose or Protein A Sepharose (Sigma P3296/P9242) pre-conjugated with immunoprecipitation antibody to a buffer for immunoprecipitation, and slowly rotating the tube containing the sample buffer at 4° C. overnight. The buffer for immunoprecipitation comprises 20 mM Tris Ph 7.5, 1% Triton-X100, 150 mM NaCl, phosphatase inhibitor cocktail (Cell Signaling (#58709S)), and 10% glycerol. Next morning, the content in the tube was centrifuged. The precipitate was washed with the same buffer twice and dissolved in SDS buffer. The precipitate in the solution was separated with 15% SDS-PAGE or 12.5% SDS-PAGE and analyzed by Western blotting.
HeLa cells were incubated with 10 mM bCD for one hour in the presence of 10% serum before the cells were washed and re-incubated in medium containing 10% serum for the indicated period (˜120 minutes).

EGFR, ERK1/2, and PI3K = experiment: Example 6 Test B: EGFR, ERK1/2 and PI3K activation in A431 cells; assay type: cell-based; settings: bCD and/or 2DG, 10 mM each
Method: as §2, with “overnight.” for “overnight. The buffer for immunoprecipitation comprises 20 mM Tris Ph 7.5, 1% Triton-X100, 150 mM NaCl, phosphatase inhibitor cocktail (Cell Signaling (#58709S)), and 10% glycerol.”
as §3

AKT [5] = experiment: Example 1 Test A: IGF1-stimulated AKT phosphorylation in HeLa cells, Western blot; assay type: cell-based; settings: serum-free, 7 mM bCD (MBCD) 30 minutes, 20 ng/mL IGF1 20 minutes
Method: as §2
(§5) (Test A) HeLa cells were incubated in serum-free medium with 0, 1.75, 3.5, and 7.0 mM bCD for 30 minutes, which were prepared in duplicate in each bCD concentration. […] The cells were harvested and analyzed by Western Blots for phosphor-serine AKT and AKT, in which the phosphorylation of AKT was used as an indicator of the AKT activation. […] The cells were harvested and analyzed by Western Blots about EGFR, IGF1R, ERK, PI3K, and AKT, as well as each phosphorylation thereof. […]

AKT [6] = experiment: Example 3 Method B: AKT phosphorylation in RCC4 cells in 10% serum; assay type: cell-based; settings: 10 mM 2DG 2 hours, 10 mM bCD (MBCD) last 30 minutes
Method: as §4
RCC4 cells were incubated with or without 10 mM 2DG for 2 hours in the presence of 10% serum. In the last 30 minutes, each one subset of cells treated/untreated with 2DG was exposed to 10 mM bCD before the cells were harvested and analyzed.

[7] = system: IGF1-induced hypoglycemia; experiment: Example 4: IGF1-induced hypoglycemia in mice; assay type: in vivo; settings: five-hour starved mice, 40 μg bCD (HPBCD) 30 minutes before 100 ng IGF1, glucose after thirty minutes
Method: Five-hour starved mice were either pre-treated with 40 μg bCD for 30 minutes, or without. They were then injected with 100 ng IGF1. After thirty minutes, the blood glucose levels were measured by drawing blood from each mouse tail. The experiments were performed in triplicate samples and the error bars indicate the standard deviation. The mice were all about 20 g.

AKT [8] = experiment: Example 6 Test A: AKT phosphorylation, A431 squamous cancer cells; assay type: cell-based; settings: 10 mM bCD (MBCD) 30 minutes, 25 mM glucose
Method: as §2, with “overnight.” for “overnight. The buffer for immunoprecipitation comprises 20 mM Tris Ph 7.5, 1% Triton-X100, 150 mM NaCl, phosphatase inhibitor cocktail (Cell Signaling (#58709S)), and 10% glycerol.”
as §3

AKT [9] = experiment: Example 6 Test A: AKT phosphorylation, Panc-1 pancreatic cancer cells; assay type: cell-based; settings: Panc-1 cells, 10 mM bCD (MBCD) 30 minutes, 25 mM glucose
Method: as §2, with “overnight.” for “overnight. The buffer for immunoprecipitation comprises 20 mM Tris Ph 7.5, 1% Triton-X100, 150 mM NaCl, phosphatase inhibitor cocktail (Cell Signaling (#58709S)), and 10% glycerol.”
as §3

RTK-Ras-ERK signals = experiment: Example 1 Tests B and C: ERK signals in EGF or IGF1 challenged HeLa cells, Western blot; assay type: cell-based; settings: 10 mM bCD (MBCD) 30 minutes, then EGF or IGF1
Method: as §2, §5

[10] = system: PI3K-AKT pro-survival signals; experiment: Example 1 Tests B and C: EGF or IGF1 challenge of HeLa cells, Western blot for EGFR, IGF1R, PI3K, AKT phosphorylation; assay type: cell-based; settings: 10 mM bCD (MBCD) 30 minutes, then 100 ng/mL EGF or 10 ng/mL IGF1
Method: as §2, §5

Panc-1 cells = experiment: Example 9: 2DG-bCD-TRAIL in Panc-1 cells, live cells by trypan-blue dye exclusion; assay type: cell-based; settings: TRAIL 10 ng/ml alone
Method: as §1
(A) Panc-1 cells were treated with the standard 2DG-bCD-TRAIL protocol (FIG. 3). The live cells were distinguished from the dead cells by trypan-blue dye exclusion assays, and the live cells were counted, and graphed. The experiments were performed in triplicate and the error bars represent the standard deviations. (B) Western blots of Panc-1 cells left untreated, treated with TRAIL, treated with 2DG-bCD combination, and treated with the combination of 2DG-bCD-TRAIL as depicted in FIG. 3. The cells were harvested at hour 6. The experiments were repeated three times with similar results.

OC[C@H]1O[C@@H]2O[C@H]3[C@H](O)[C@@H](O)[C@@H](O[C@H]4[C@H](O)[C@@H](O)[C@@H](O[C@H]5[C@H](O)[C@@H](O)[C@@H](O[C@H]6[C@H](O)[C@@H](O)[C@@H](O[C@H]7[C@H](O)[C@@H](O)[C@@H](O[C@H]8[C@H](O)[C@@H](O)[C@@H](O[C@H]1[C@H](O)[C@H]2O)O[C@@H]8CO)O[C@@H]7CO)O[C@@H]6CO)O[C@@H]5CO)O[C@@H]4CO)O[C@@H]3CO [β-cyclodextrin]
enhancement of the combination effect of 2DG-ABT (live cells) (UOK121 cells): clearly enhanced
AKT activation (phosphorylation) (AKT [1]): lowered

OC[C@H]1O[C@@H]2O[C@H]3[C@H](O)[C@@H](O)[C@@H](O[C@H]4[C@H](O)[C@@H](O)[C@@H](O[C@H]5[C@H](O)[C@@H](O)[C@@H](O[C@H]6[C@H](O)[C@@H](O)[C@@H](O[C@H]7[C@H](O)[C@@H](O)[C@@H](O[C@H]8[C@H](O)[C@@H](O)[C@@H](O[C@H]9[C@H](O)[C@@H](O)[C@@H](O[C@H]1[C@H](O)[C@H]2O)O[C@@H]9CO)O[C@@H]8CO)O[C@@H]7CO)O[C@@H]6CO)O[C@@H]5CO)O[C@@H]4CO)O[C@@H]3CO [γ-cyclodextrin]
enhancement of the combination effect of 2DG-ABT (live cells) (UOK121 cells): little enhanced

methyl-β-cyclodextrin [bCD]
AKT phosphorylation (AKT [2]): attenuated
AKT phosphorylation (AKT [3]): attenuated
AKT activities coming back after return to media without bCD (AKT [4]): did not take long
EGFR, ERK1/2, and PI3K activation (EGFR, ERK1/2, and PI3K): all activated
process that IGF1 generates signal to AKT (AKT phosphorylation) (AKT [5]): completely block
phosphorylation of AKT (AKT [6]): almost totally absent
IGF1-induced hypoglycemia (blood glucose) [7]: clearly attenuated
AKT phosphorylation (AKT [8]): attenuated
AKT phosphorylation (AKT [9]): attenuated
Ras-ERK proliferation signals (RTK-Ras-ERK signals): intact
AKT activations [10]: considerably diminished
activation of EGFR, IGF1R, and PI3K [10]: clearly activated

B1: TRAIL: TNF-related apoptosis-inducing ligand (protein, UniProt P50591 1-281, looked up)
Tumor necrosis factor ligand …: MAMMEVQGGPSLGQTCVLIVIFTVLLQSLCVAVTYVYFTNELKQMQDKYSKSGIACFLKEDDSYWDPNDEESMNSPCWQVKWQLRQLVRKMILRTSEETISTVQEKQQNISPLVRERGPQRVAAHITGTRGRSNTLSSPNSKNEKALGRKINSWESSRSGHSFLSNLHLRNGELVIHEKGFYYIYSQTYFRFQEEIKENTKNDKQMVQYIYKYTSYPDPILLMKSARNSCWSKDAEYGLYSIYQGGIFELKENDRIFVSVTNEHLIDMDHEASFFGAFLVG
effect on Panc-1 cells (live cells) (Panc-1 cells): virtually no effect
